Laboratory results from the NIST ThermoML archive (doi:10.1016/j.jct.2015.11.012).

Assay: xn = mol fraction of the nth substance listed
Conditions: 100 kPa, Liquid; for viscosity: Capillary tube (Ostwald / Ubbelohde) method; for speed of sound: Frequency=2 MHz, Linear variable-path acoustic interferometer; for mass density: Vibrating tube method

OCCCl [1-chloro-2-hydroxyethane] + Nc1cccc(Cl)c1
Conditions | mass density [kg/m3] | speed of sound [m/s] | viscosity [mPa·s]
303.15 K, x2 = 0 | 1192.12 | 1342.8 | 2.578
303.15 K, x2 = 0.0844 | 1194.38 | 1365.5 | 2.728
303.15 K, x2 = 0.1759 | 1196.5 | 1388.6 | 2.888
303.15 K, x2 = 0.2675 | 1198.32 | 1410 | 3.046
303.15 K, x2 = 0.3622 | 1199.9 | 1430.2 | 3.207
303.15 K, x2 = 0.4808 | 1201.48 | 1452.7 | 3.408
303.15 K, x2 = 0.5814 | 1202.58 | 1469.7 | 3.576
303.15 K, x2 = 0.6862 | 1203.51 | 1484.7 | 3.749
303.15 K, x2 = 0.7938 | 1204.28 | 1498 | 3.925
303.15 K, x2 = 0.8902 | 1204.84 | 1508.2 | 4.081
308.15 K, x2 = 0 | 1186.63 | 1328.5 | 2.259
308.15 K, x2 = 0.0844 | 1189.08 | 1351.3 | 2.402
308.15 K, x2 = 0.1759 | 1191.33 | 1374.1 | 2.553
308.15 K, x2 = 0.2675 | 1193.26 | 1395.1 | 2.703
308.15 K, x2 = 0.3622 | 1194.92 | 1415 | 2.855
308.15 K, x2 = 0.4808 | 1196.62 | 1437.1 | 3.045
308.15 K, x2 = 0.5814 | 1197.79 | 1454 | 3.203
308.15 K, x2 = 0.6862 | 1198.8 | 1469.2 | 3.367
308.15 K, x2 = 0.7938 | 1199.65 | 1482.5 | 3.532
308.15 K, x2 = 0.8902 | 1200.24 | 1492.7 | 3.679
313.15 K, x2 = 0 | 1178.05 | 1315.5 | 1.852
313.15 K, x2 = 0.0844 | 1181.05 | 1337.6 | 1.995
313.15 K, x2 = 0.1759 | 1183.78 | 1359.6 | 2.147
313.15 K, x2 = 0.2675 | 1186.13 | 1379.6 | 2.296
313.15 K, x2 = 0.3622 | 1188.2 | 1398.4 | 2.448
313.15 K, x2 = 0.4808 | 1190.36 | 1419.6 | 2.636
313.15 K, x2 = 0.5814 | 1191.88 | 1435.7 | 2.795
313.15 K, x2 = 0.6862 | 1193.24 | 1450.5 | 2.958
313.15 K, x2 = 0.7938 | 1194.4 | 1463.3 | 3.123
313.15 K, x2 = 0.8902 | 1195.27 | 1472.8 | 3.269
318.15 K, x2 = 0 | 1170.87 | 1301.2 | 1.564
318.15 K, x2 = 0.0844 | 1173.91 | 1323.6 | 1.698
318.15 K, x2 = 0.1759 | 1176.26 | 1345.1 | 1.84
318.15 K, x2 = 0.2675 | 1178.79 | 1365.6 | 1.978
318.15 K, x2 = 0.3622 | 1181.24 | 1384.1 | 2.118
318.15 K, x2 = 0.4808 | 1184.01 | 1404.8 | 2.292
318.15 K, x2 = 0.5814 | 1185.85 | 1420.8 | 2.438
318.15 K, x2 = 0.6862 | 1187.52 | 1435.5 | 2.589
318.15 K, x2 = 0.7938 | 1189.32 | 1448.6 | 2.741
318.15 K, x2 = 0.8902 | 1190.2 | 1458 | 2.874

Nc1cccc(Cl)c1 [3-chlorobenzenamine] + NCCO
Conditions | mass density [kg/m3] | speed of sound [m/s] | viscosity [mPa·s]
303.15 K, x1 = 0.0857 | 1037.07 | 1689 | 13.56
303.15 K, x1 = 0.1749 | 1063.03 | 1674.4 | 12.66
303.15 K, x1 = 0.2679 | 1086.86 | 1658.9 | 11.72
303.15 K, x1 = 0.3619 | 1108.19 | 1642.4 | 10.77
303.15 K, x1 = 0.4597 | 1127.88 | 1624.3 | 9.773
303.15 K, x1 = 0.5607 | 1145.96 | 1604.9 | 8.747
303.15 K, x1 = 0.6649 | 1162.61 | 1584.1 | 7.685
303.15 K, x1 = 0.7726 | 1177.97 | 1562.3 | 6.586
303.15 K, x1 = 0.8835 | 1192.12 | 1540.1 | 5.451
303.15 K, x1 = 1 | 1205.32 | 1517.5 | 4.255
308.15 K, x1 = 0.0857 | 1032.99 | 1673.4 | 11.04
308.15 K, x1 = 0.1749 | 1058.89 | 1659.2 | 10.35
308.15 K, x1 = 0.2679 | 1082.69 | 1643.1 | 9.621
308.15 K, x1 = 0.3619 | 1103.96 | 1626 | 8.885
308.15 K, x1 = 0.4597 | 1123.59 | 1607.5 | 8.117
308.15 K, x1 = 0.5607 | 1141.65 | 1588.1 | 7.322
308.15 K, x1 = 0.6649 | 1158.22 | 1568.1 | 6.5
308.15 K, x1 = 0.7726 | 1173.53 | 1547.2 | 5.649
308.15 K, x1 = 0.8835 | 1187.62 | 1525.2 | 4.77
308.15 K, x1 = 1 | 1200.75 | 1501.2 | 3.842
313.15 K, x1 = 0.0857 | 1029.02 | 1658.8 | 9.049
313.15 K, x1 = 0.1749 | 1054.84 | 1643.8 | 8.509
313.15 K, x1 = 0.2679 | 1078.52 | 1626.5 | 7.944
313.15 K, x1 = 0.3619 | 1099.7 | 1608.2 | 7.37
313.15 K, x1 = 0.4597 | 1119.25 | 1588.8 | 6.771
313.15 K, x1 = 0.5607 | 1137.2 | 1568.9 | 6.151
313.15 K, x1 = 0.6649 | 1153.72 | 1548.6 | 5.51
313.15 K, x1 = 0.7726 | 1168.97 | 1527.7 | 4.846
313.15 K, x1 = 0.8835 | 1182.98 | 1505.5 | 4.157
313.15 K, x1 = 1 | 1196.02 | 1480.3 | 3.43
318.15 K, x1 = 0.0857 | 1024.4 | 1642 | 7.182
318.15 K, x1 = 0.1749 | 1050.2 | 1627.5 | 6.785
318.15 K, x1 = 0.2679 | 1073.86 | 1610.2 | 6.368
318.15 K, x1 = 0.3619 | 1095.02 | 1591.7 | 5.944
318.15 K, x1 = 0.4597 | 1114.53 | 1572.2 | 5.501
318.15 K, x1 = 0.5607 | 1132.47 | 1552.5 | 5.043
318.15 K, x1 = 0.6649 | 1149 | 1532.6 | 4.568
318.15 K, x1 = 0.7726 | 1164.23 | 1512.3 | 4.075
318.15 K, x1 = 0.8835 | 1178.23 | 1490.5 | 3.565
318.15 K, x1 = 1 | 1191.25 | 1464.8 | 3.022

Nc1cccc(Cl)c1 [3-chlorobenzenamine] + OCCc1ccccc1
Conditions | mass density [kg/m3] | speed of sound [m/s] | viscosity [mPa·s]
303.15 K, x1 = 0.0855 | 1027.23 | 1509.6 | 8.643
303.15 K, x1 = 0.1746 | 1043.06 | 1511 | 8.223
303.15 K, x1 = 0.2665 | 1059.74 | 1512.3 | 7.787
303.15 K, x1 = 0.3613 | 1077.27 | 1513.6 | 7.335
303.15 K, x1 = 0.4491 | 1093.81 | 1514.6 | 6.916
303.15 K, x1 = 0.5201 | 1107.41 | 1515.4 | 6.576
303.15 K, x1 = 0.6594 | 1134.71 | 1516.5 | 5.907
303.15 K, x1 = 0.7692 | 1156.83 | 1517 | 5.377
303.15 K, x1 = 0.8787 | 1179.49 | 1517.3 | 4.846
303.15 K, x1 = 1 | 1205.32 | 1517.5 | 4.255
308.15 K, x1 = 0.0855 | 1023.5 | 1492.2 | 6.915
308.15 K, x1 = 0.1746 | 1039.28 | 1493.6 | 6.623
308.15 K, x1 = 0.2665 | 1055.88 | 1495 | 6.319
308.15 K, x1 = 0.3613 | 1073.34 | 1496.3 | 6.005
308.15 K, x1 = 0.4491 | 1089.81 | 1497.4 | 5.712
308.15 K, x1 = 0.5201 | 1103.34 | 1498.3 | 5.473
308.15 K, x1 = 0.6594 | 1130.52 | 1499.6 | 5.005
308.15 K, x1 = 0.7692 | 1152.56 | 1500.4 | 4.632
308.15 K, x1 = 0.8787 | 1175.08 | 1500.9 | 4.259
308.15 K, x1 = 1 | 1200.75 | 1501.2 | 3.842
313.15 K, x1 = 0.0855 | 1019.67 | 1472 | 5.867
313.15 K, x1 = 0.1746 | 1035.39 | 1473.4 | 5.638
313.15 K, x1 = 0.2665 | 1051.92 | 1474.6 | 5.398
313.15 K, x1 = 0.3613 | 1069.28 | 1475.8 | 5.149
313.15 K, x1 = 0.4491 | 1085.67 | 1476.9 | 4.918
313.15 K, x1 = 0.5201 | 1099.15 | 1477.7 | 4.729
313.15 K, x1 = 0.6594 | 1126.19 | 1478.9 | 4.357
313.15 K, x1 = 0.7692 | 1148.11 | 1479.7 | 4.061
313.15 K, x1 = 0.8787 | 1170.53 | 1480.3 | 3.763
313.15 K, x1 = 1 | 1196.02 | 1480.3 | 3.43
318.15 K, x1 = 0.0855 | 1015.75 | 1457.9 | 4.827
318.15 K, x1 = 0.1746 | 1031.43 | 1459.1 | 4.659
318.15 K, x1 = 0.2665 | 1047.87 | 1460.2 | 4.483
318.15 K, x1 = 0.3613 | 1065.15 | 1461.2 | 4.3
318.15 K, x1 = 0.4491 | 1081.46 | 1462.1 | 4.129
318.15 K, x1 = 0.5201 | 1094.86 | 1462.8 | 3.989
318.15 K, x1 = 0.6594 | 1121.8 | 1463.9 | 3.714
318.15 K, x1 = 0.7692 | 1143.63 | 1464.6 | 3.494
318.15 K, x1 = 0.8787 | 1165.92 | 1464.8 | 3.272
318.15 K, x1 = 1 | 1191.25 | 1464.8 | 3.022
